# Results from publication PMC7005675 (Molecular Cell, 2020).
# Biological target: T1, RsiG (Streptomyces venezuelae, UniProt F2RFR7)
# T1 sequence (F2RFR7 1-199): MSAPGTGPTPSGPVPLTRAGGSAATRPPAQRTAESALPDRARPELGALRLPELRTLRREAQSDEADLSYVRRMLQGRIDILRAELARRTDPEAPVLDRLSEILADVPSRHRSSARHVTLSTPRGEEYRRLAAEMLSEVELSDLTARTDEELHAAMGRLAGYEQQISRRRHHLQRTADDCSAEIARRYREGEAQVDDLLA
# Assay: fluorescence polarization
# Format: binding
# Settings: labelled compound; 150 mM NaCl, 25 mM Tris-HCl pH 7.5, 25°C; 1 nM probe
substance,measurement,value
2′-O-(6-[Fluoresceinyl]aminohexylcarbamoyl)-cyclic diguanosine monophosphate [2′-Fluo-AHC-c-di-GMP],Kd,6.5 ± 1.5 µM
